Laboratory results taken from article PMC6207684, “Structural reorganization of SHP2 by oncogenic mutations and implications for oncoprotein resistance to allosteric inhibition” (Nature Communications, 2018).

Legend:
[1] = test system: wild-type SHP2; parameters: method as in PMID 27362227; conditions: biochemical assays; cited from earlier work
[2] = test system: PTPN11-null U2OS cells expressing SHP2^F285S; assay: Western blot pErk quantification; assay type: cell-based; conditions: read-out: IC50 for pErk reduction by SHP099; PTPN11-null U2OS cells harboring SHP2^F285S; 2 h treatment
Source text: (§1) PTPN11−/−/− U2OS cells were generated using the methodology described by Zhang et al.[25]. In brief, CRISPR guides against the first three exons of the PTPN11 proto-oncogene were designed using the Sanger CRISPR database, cloned into the pSpCas9(BB)-2A-GFP vector, transfected into U2OS (ATCC® HTB-96^TM) cells using manufacturer-recommended Fugene®HD methodologies, and assayed for knockdown of SHP2 protein levels, via western blot, in bulk.
(§2) Mammalian SHP2 expression plasmids were designed from pCMV-SHP2 WT, which was provided as a gift from Ben Neel (Addgene plasmid #8381), using site-directed mutagenesis (QuikChange, Agilent; see Supplementary Table 4 for the sequences of all primers used in this study). Mutation acquisition and plasmid identity were confirmed via DNA sequencing.
(§3) Lysis was visually confirmed with light microscopy, and lysates were added to gel loading buffer and run on Novex^TM wedgewell^TM 12% Tris-Glycine gels (Invitrogen XP00122) at 180 V for 1 h. Proteins were transferred from gels to polyvinylidene difluoride membranes using an iBlot 2 Dry Blotting System (Thermo Fisher IB21001). After transfer, membranes were blocked with either 5% bovine serum albumin or 5% nonfat milk in tris-buffered saline with tween (TBST) at room temperature for 1 h and then incubated with primary antibody (CST 9101 pErk at 1:500 dilution, CST 9102 Erk at 1:500 dilution, CST 3752 SHP2 at 1:300 dilution, or Sigma A1978 β-Actin at 1:3000 dilution) in respective blocking solution overnight at 4 °C, washed 3 × with TBST for 5 min, incubated with secondary antibody (ECL^TM Anti-Rabbit GE NA934V or Anti-Mouse GE NXA931V at 1:10,000 dilution) in respective blocking solution for 1 h at room temperature, and washed 3 x with TBST for 5 min. Following final wash, membranes were imaged on a GE Amersham Imager 600 using SuperSignal® West Pico Chemiluminescent Substrate (Pierce 34080). Linear brightness and contrast adjustments were applied uniformly across the entire image, and band densities were quantified using Fiji[24]. Western blot images are representative of at least two replicates, which were performed on different days.

[3] = test system: PTPN11-null U2OS cells expressing SHP2^E76K; assay: Western blot pErk quantification; assay type: cell-based; conditions: SHP2^E76K in PTPN11-null U2OS cells (other cancer mutants investigated)
Source text: as §1, §2, §3

[4] = test system: PTPN11-null U2OS cells expressing SHP2^G60V; assay: Western blot pErk quantification; assay type: cell-based; conditions: SHP2^G60V in PTPN11-null U2OS cells (other cancer mutants investigated)
Source text: as §1, §2, §3

[5] = test system: PTPN11-null U2OS cells expressing SHP2^D61V; assay: Western blot pErk quantification; assay type: cell-based; conditions: SHP2^D61V in PTPN11-null U2OS cells (other cancer mutants investigated)
Source text: as §1, §2, §3

[6] = test system: PTPN11-null U2OS cells expressing SHP2^S502P; assay: Western blot pErk quantification; assay type: cell-based; conditions: SHP2^S502P in PTPN11-null U2OS cells; 50 μM SHP099
Source text: as §1, §2, §3

[7] = test system: PTPN11-null U2OS cells re-expressing SHP2^WT; assay: Western blot pErk quantification; assay type: cell-based
Source text: as §1, §2, §3

[8] = test system: cancer cell lines that are dependent on receptor tyrosine kinases and wild-type SHP2; parameters: method as in PMID 27362227; conditions: cited from earlier work
[9] = test system: PTPN11-null U2OS cells; assay: Western blot pErk quantification; assay type: cell-based; conditions: 2 h treatment
Source text: as §1
Lysis was visually confirmed with light microscopy, and lysates were added to gel loading buffer and run on Novex^TM wedgewell^TM 12% Tris-Glycine gels (Invitrogen XP00122) at 180 V for 1 h. Proteins were transferred from gels to polyvinylidene difluoride membranes using an iBlot 2 Dry Blotting System (Thermo Fisher IB21001). […] Linear brightness and contrast adjustments were applied uniformly across the entire image, and band densities were quantified using Fiji[24]. […]

[10] = test system: wild-type U2OS cells; assay: Western blot pErk quantification; assay type: cell-based
Method: as §3

[11] = test system: U2OS cells; assay: pERK induction by EGF stimulation in serum-starved U2OS cells, western blot; assay type: cell-based; conditions: U2OS serum starved 48 hours; SHP099 10 µM for 2 hours; EGF 5 nM; lysed 10 min after stimulation
Method: or vehicle cont rol f or 2 hours, and t hen st imulat ed wit h EGF. Cells were lysed on ice 10 min
af t er st imulat ion, and pErklevels were analyzed by western blot. […]

- IC50 [2]: 8 ± 2 µM
- IC50 ([7]; read-out: IC50 for pErk reduction by SHP099, PTPN11-null cells re-expressing SHP2^WT, 2 h treatment, western blot densitometry): 4 ± 2 µM
- IC50 ([10]; read-out: IC50 for pErk reduction by SHP099, 2 h treatment, western blot densitometry): 2 ± 1 µM
SMILES: CC1(N)CCN(c2cnc(-c3cccc(Cl)c3Cl)c(N)n2)CC1 [SHP099]
- affinity for wild-type SHP2 [1]: nanomolar affinity
- inhibition of Erk phosphorylation [3]: does not significantly inhibit Erk phosphorylation
- inhibition of Erk phosphorylation [4]: does not significantly inhibit Erk phosphorylation
- inhibition of Erk phosphorylation [5]: does not significantly inhibit Erk phosphorylation
- loss of pErk [6]: little, if any, loss of pErk
- reduction of pErk levels by SHP099 (incomplete, maximal) ([7]; SHP2^WT-rescued PTPN11-null U2OS cells): ~ 65%
- antiproliferative activity [8]: antiproliferative activity
- pErk levels upon SHP099 treatment (western blot) [9]: unaffected
- pErk levels upon SHP099 treatment (western blot) ([10]; 2 h treatment): dramatically reduces pErk levels
- pERK induction in response to EGF stimulation [11]: attenuated
